According to patent US4877792A, “Heteroaryloxy-beta-carboline derivatives, their preparation and their use as medicinal agents” (Schering Aktiengesellschaft, priority 1986, dated 1989):

Tests used:
benzodiazepine receptors = assay: displacement of 3H-flunitrazepam binding, in vitro (rat brain membranes); settings: 3H-flunitrazepam 1.0 nM, 0° C.
benzodiazepine receptor = assay: inhibition of 3H-flunitrazepam binding in live brain, in vivo (mice); settings: normally i.p., 3H-flunitrazepam i.v. after 15 min
[1] = 4-plate assay, anxiolytic activity (Boissier et al.); assay type: in vivo; settings: Mus musculus, ip; minimum lowest dose which increases locomotor activity of punished mice; i.p.; read-out: Anxiolytic Activity MED
Protocol: The compounds of this invention display especially anxiolytic and anticonvulsive activities. In order to study the anxiolytic effect, the compounds were tested in the 4-plate assay according to the method by Boissier et al., Eur. J. Pharmacol. 4:145-150 ([…]). The table indicates the minimum lowest dose (MED) which increases the locomotor activity of the punished mice after i.p. treatment.

SMILES | Inhibition of 3H-Flunitrazepam Binding IC50 in vitro (benzodiazepine receptors) [ng/mL] | Inhibition of 3H-Flunitrazepam Binding ED50 in vivo (benzodiazepine receptor) [mg/kg] | minimal effective dose [1] [mg/kg]
COCc1c(C(=O)OC(C)C)ncc2[nH]c3ccc(Oc4ccc(Br)cn4)cc3c12 | 0.75 | 2.7 | 3.13
CCc1noc(-c2cc3c(cn2)[nH]c2cccc(Oc4ncccn4)c23)n1 | 0.28 | 2.8 | 3.13
